In patent US7030162B2, “Treatment of migraine headache” (POZEN Inc., priority 1996, dated 2006):
Structures can show the parent of a compound that is named as a salt.

Experiments:
[1] = human, in vivo
Method: Twenty-four healthy volunteers (14 females and 10 males), aged 20–55 years, received each of the four treatments. […] Standard pharmacokinetic parameters were calculated, including maximum plasma concentrations over the entire sampling phase (Cmax), time to attain maximal plasma concentrations (Tmax), and area under the plasma concentration-time curve (AUCI-time 0 to infinity).

[2] = naproxen sodium: water of neutral pH; cited from earlier work
migraine patients = assay: Earlier phase II study of metoclopramide on pain variables; assay type: in vivo, human
[3] = cited from earlier work; for time of peak plasma concentrations: after oral dosing, normal subjects; for half-life: pharmacokinetic half-life

## CCN(CC)CCNC(=O)c1cc(Cl)c(N)cc1OC [Metoclopramide hydrochloride, metoclopramide hydrochloride]
[1]
  tolerability: well tolerated
[2]
  solubility in water: freely soluble
Migraine patients
  effect on pain variables: without significant effect

## CC(=O)Nc1ccc(O)cc1 [acetaminophen]
[3]
  time of peak plasma concentrations: about 1 hour

## CC(=O)Oc1ccccc1C(=O)O [aspirin]
[3]
  time of peak plasma concentrations: about 1 hour
[3]; in vivo
  plasma half life: very short

## Cc1ccc(-c2cc(C(F)(F)F)nn2-c2ccc(S(N)(=O)=O)cc2)cc1 [celecoxib]
[3]; in vivo
  time to peak plasma levels: approximately 3 hours
[3]
  half-life: approximately 11 hours

## CCc1cccc2c3c([nH]c12)C(CC)(CC(=O)O)OCC3 (stereo not shown) [etodolac]
[3]
  half-life: about 7 hours

## CC(C(=O)O)c1ccc(-c2ccccc2)c(F)c1 (stereo not shown) [flurbiprofen]
[3]
  half-life: about 6 hours

## CC(C(=O)O)c1cccc(C(=O)c2ccccc2)c1 (stereo not shown) [ketoprofen]
[3]; in vivo
  time to peak plasma levels: one-half to 2

## O=C(c1ccccc1)c1ccc2n1CCC2C(=O)O (stereo not shown) [ketorolac]
[3]
  half-life: 8 to 9 h

## Cc1ccc(Cl)c(Nc2ccccc2C(=O)O)c1Cl [meclofenamate]
[3]; in vivo
  time to peak plasma levels: 0.5 to 1 h

## Cc1cccc(Nc2ccccc2C(=O)O)c1C [mefenamic acid]
[3]
  half-life: up to 4 hours

## COc1ccc2cc([C@H](C)C(=O)O)ccc2c1 [naproxen]
[1]
  tolerability: well tolerated

## O=C(O)CCc1nc(-c2ccccc2)c(-c2ccccc2)o1 [oxaprozin]
[3]
  half-life: 42 to 50 h
